Experimental findings from article PMC2922759 (European journal of pharmacology, 2009) are described below.

Several values for one entry are separate records, joined by “and”; a condition that tells them apart may be missing. Equal entries are not always repeated. Entries after “also recorded” stand apart in the source; their conditions may differ.

Broadly, the Ki is a dissociation constant, usually derived from enzyme kinetics or from competition with a known ligand. A higher Ki goes with a looser hold on the target. In general, AUC refers to the area under the concentration-time curve, a measure of exposure. Low readings indicate low exposure, high ones high exposure. The term Cmax denotes the maximum level reached in the sampled fluid or tissue. A word on the Tmax: it is the time from dosing to the highest level.

One series has as its system capsaicin-induced cough. The settings on record: for doses producing significant CNS effects (lethargy, ataxia): guinea pig, in vivo, po.
Series [1] has as its system conditioned place preference. Put plainly: Rat conditioned place preference. Type of series: in vivo. The settings on record: for conditioned place preference (time spent in drug paired side): SCH 486757 10 mg/kg p.o., amphetamine 3 mg/kg, morphine 10 mg/kg, 4 pairings.
In a further series the target is Rat NOP receptor (Rattus norvegicus, UniProt P35370). Put plainly: NOP receptor binding, clone. The settings on record: rat clone (CHO cells); Mean±S.E.M.
Rat NOP receptor, sequence (P35370 whole entry): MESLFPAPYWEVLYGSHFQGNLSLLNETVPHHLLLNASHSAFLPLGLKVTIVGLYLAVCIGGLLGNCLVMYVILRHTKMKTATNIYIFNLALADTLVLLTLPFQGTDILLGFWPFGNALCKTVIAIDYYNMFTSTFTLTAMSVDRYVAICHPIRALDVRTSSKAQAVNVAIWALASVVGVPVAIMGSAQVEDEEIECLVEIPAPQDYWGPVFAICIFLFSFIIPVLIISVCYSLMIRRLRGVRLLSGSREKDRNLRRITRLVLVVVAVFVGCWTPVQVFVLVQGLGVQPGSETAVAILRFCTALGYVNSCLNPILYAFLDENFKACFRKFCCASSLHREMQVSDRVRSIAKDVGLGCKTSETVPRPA
Series [2] is described as follows: Pharmacokinetic profile in the dog. Type of series: in vivo.
A further series concerns the target Guinea pig NOP receptor (Cavia porcellus, UniProt P47748). Put plainly: NOP receptor binding, brain. The following applies: guinea pig brain (cortex); Mean±S.E.M.
The target of a further series is Serotonin 5-HT6 (Homo sapiens, UniProt P50406). Put plainly: MDS Pharma Services counterscreen binding. The settings on record: semi-quantitative. Background: Counterscreens check selectivity or assay interference.
Serotonin 5-HT6, sequence (P50406 whole entry): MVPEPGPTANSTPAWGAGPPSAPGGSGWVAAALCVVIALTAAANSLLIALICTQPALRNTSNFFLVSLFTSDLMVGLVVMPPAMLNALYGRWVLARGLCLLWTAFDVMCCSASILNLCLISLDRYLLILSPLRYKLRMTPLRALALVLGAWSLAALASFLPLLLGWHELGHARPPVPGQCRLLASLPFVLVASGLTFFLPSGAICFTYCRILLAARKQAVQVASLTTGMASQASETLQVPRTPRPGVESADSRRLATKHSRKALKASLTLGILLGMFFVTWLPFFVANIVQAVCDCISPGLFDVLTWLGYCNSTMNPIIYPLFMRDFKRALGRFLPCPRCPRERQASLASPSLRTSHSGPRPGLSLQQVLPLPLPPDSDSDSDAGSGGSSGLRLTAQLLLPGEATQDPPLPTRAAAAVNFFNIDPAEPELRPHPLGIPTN
The nature of series [3]: Pharmacokinetic profile in the guinea pig. Type of series: in vivo.
For a further series, the target named is Cat NOP receptor. Put plainly: NOP receptor binding, brain. The settings on record: Mean±S.E.M.
The target of a further series is Dopamine D3 (Homo sapiens, UniProt P35462). Put plainly: MDS Pharma Services counterscreen binding. The following applies: semi-quantitative.
Dopamine D3, sequence (P35462 whole entry): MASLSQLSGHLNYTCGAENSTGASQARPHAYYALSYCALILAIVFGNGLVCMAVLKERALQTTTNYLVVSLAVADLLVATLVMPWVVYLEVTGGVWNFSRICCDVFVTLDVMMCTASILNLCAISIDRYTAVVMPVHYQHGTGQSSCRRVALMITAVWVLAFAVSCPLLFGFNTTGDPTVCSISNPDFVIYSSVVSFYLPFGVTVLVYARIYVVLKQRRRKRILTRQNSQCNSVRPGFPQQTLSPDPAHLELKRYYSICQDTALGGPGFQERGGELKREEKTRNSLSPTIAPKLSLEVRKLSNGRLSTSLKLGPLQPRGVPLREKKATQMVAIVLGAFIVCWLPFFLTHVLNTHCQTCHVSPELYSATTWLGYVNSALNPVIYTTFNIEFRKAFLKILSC
The nature of series [4]: Safety pharmacology rat studies. The settings on record: oral doses up to 30 mg/kg, data not shown. The series is classed as in vivo.
Another series has as its target Dog NOP receptor. Put plainly: NOP receptor binding, brain. The settings on record: Mean±S.E.M.
The nature of series [5]: Pharmacokinetic profile in the rat. The series is classed as in vivo. The following applies: 10 mg/kg p.o.
For series [6], the system named is MDS Pharma enzyme and receptor binding assays (benzodiazepine, bradykinin, dopamine D1/D2/D4, GABA, glutamate, glycine, serotonin, tachykinin). Put plainly: MDS Pharma Services counterscreen panel, remaining assays. The following applies: tested at 10 μM; active = greater than 50% inhibition.
A short description of series [7]: General tolerability / overt behavioral effects. The series is classed as in vivo. The following applies: guinea pig, rat, cat and dogs.
For another series, the target named is Dopamine transporter (Homo sapiens, UniProt Q01959). Put plainly: MDS Pharma Services counterscreen binding. The following applies: semi-quantitative.
Dopamine transporter, sequence (Q01959 whole entry): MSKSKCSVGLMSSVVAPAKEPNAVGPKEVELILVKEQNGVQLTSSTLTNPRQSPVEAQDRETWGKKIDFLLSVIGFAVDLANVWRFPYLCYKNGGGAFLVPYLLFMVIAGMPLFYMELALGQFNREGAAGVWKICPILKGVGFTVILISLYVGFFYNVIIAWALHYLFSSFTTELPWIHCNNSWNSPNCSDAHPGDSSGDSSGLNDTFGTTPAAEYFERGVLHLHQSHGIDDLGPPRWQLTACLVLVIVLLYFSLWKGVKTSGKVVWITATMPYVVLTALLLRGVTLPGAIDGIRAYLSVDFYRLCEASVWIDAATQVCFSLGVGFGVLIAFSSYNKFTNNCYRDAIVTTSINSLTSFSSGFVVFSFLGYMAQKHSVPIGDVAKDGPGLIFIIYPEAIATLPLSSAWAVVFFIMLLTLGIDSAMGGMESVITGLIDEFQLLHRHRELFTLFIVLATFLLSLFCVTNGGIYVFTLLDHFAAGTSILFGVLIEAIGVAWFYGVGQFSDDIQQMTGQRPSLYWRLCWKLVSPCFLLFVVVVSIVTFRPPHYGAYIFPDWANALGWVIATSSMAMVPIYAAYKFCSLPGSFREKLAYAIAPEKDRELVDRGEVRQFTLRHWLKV
In a further series the target is Sodium channel, site 2. Put plainly: MDS Pharma Services counterscreen binding. The settings on record: site 2 (rat), semi-quantitative.
The subject of series [8] is mechanically-induced cough. Put plainly: Feline mechanically-induced cough. Type of series: in vivo, cat. The following applies: intra-vertebral artery, 0.001–0.3 mg/kg cumulative.
Series [9] deals with human KOP opioid receptor (Homo sapiens, UniProt P41145). Put plainly: Opioid receptor binding, [3H]diprenorphine. The settings on record: human KOP in CHO cell membranes, Mean±S.E.M.
human KOP opioid receptor, sequence (P41145 whole entry): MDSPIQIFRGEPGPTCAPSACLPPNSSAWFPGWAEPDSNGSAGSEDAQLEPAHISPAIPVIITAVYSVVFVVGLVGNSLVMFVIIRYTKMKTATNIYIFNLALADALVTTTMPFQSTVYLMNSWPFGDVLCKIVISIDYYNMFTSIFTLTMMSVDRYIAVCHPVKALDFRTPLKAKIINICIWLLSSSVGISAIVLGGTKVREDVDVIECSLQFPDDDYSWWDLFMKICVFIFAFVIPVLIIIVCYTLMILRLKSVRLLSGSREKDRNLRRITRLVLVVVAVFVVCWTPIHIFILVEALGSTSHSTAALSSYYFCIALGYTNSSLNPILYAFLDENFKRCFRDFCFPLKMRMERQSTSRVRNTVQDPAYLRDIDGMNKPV
For series [10], the target named is human DOP opioid receptor (Homo sapiens, UniProt P41143). Put plainly: Opioid receptor binding, [3H]diprenorphine. The following applies: human DOP in CHO cell membranes, Mean±S.E.M.
human DOP opioid receptor, sequence (P41143 whole entry): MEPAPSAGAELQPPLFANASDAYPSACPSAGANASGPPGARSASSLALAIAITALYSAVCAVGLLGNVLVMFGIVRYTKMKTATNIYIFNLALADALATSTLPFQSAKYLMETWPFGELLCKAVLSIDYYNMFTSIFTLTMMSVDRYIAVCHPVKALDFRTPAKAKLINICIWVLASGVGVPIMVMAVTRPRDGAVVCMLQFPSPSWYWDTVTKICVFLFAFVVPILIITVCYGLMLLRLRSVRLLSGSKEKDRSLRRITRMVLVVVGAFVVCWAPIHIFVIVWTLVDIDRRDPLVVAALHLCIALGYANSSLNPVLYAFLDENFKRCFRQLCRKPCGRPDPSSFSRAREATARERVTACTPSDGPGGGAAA
Another series addresses Sigma (non-selective). Put plainly: MDS Pharma Services counterscreen binding. The settings on record: Sigma (non-selective, guinea pig); semi-quantitative.

Guinea pig NOP receptor, sequence (P47748 whole entry): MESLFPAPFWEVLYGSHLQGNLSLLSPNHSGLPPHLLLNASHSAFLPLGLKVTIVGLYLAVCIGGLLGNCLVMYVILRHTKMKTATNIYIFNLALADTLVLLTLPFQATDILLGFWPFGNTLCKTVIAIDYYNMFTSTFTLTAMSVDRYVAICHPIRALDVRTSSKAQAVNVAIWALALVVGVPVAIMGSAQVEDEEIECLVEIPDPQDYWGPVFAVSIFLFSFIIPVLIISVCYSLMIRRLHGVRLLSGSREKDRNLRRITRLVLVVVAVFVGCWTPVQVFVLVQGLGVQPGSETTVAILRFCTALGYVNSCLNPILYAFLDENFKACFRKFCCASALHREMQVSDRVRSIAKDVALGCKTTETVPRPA

On to `COc1ccc2c3c1O[C@H]1[C@@H](O)C=C[C@H]4[C@@H](C2)N(C)CC[C@@]341` [codeine, reference compound], for which, in the series on capsaicin-induced cough, the “doses producing significant CNS effects (lethargy, ataxia)” value is “higher than 60 mg/kg”. The “antitussive efficacy compared between SCH 486757 and standards” value in the series on capsaicin-induced cough (p.o., 4 h) is on record as “comparable antitussive efficacies”.
`CN1CC[C@]23c4c5ccc(O)c4O[C@H]2[C@@H](O)C=C[C@H]3[C@H]1C5` [morphine, reference compound]: in series [1], the “conditioned place preference (time spent in drug paired side)” value (from here on “conditioned place preference”) was “induced a marked conditioned place preference; also recorded: increased the time spent on the drug paired side”.
Turning to `OC1(c2ncccn2)CC2CCC(C1)N2C(c1ccccc1Cl)c1ccccc1Cl` (centres unmarked) [SCH 486757, 8-[Bis(2-Chlorophenyl)Methyl]-3-(2-Pyrimidinyl)-8-Azabicyclo-[3.2.1.]Octan-3-Ol], the inhibitory constant (Ki) at Rat NOP receptor was 0.0066 ± 0.00015 µM; at Guinea pig NOP receptor, 0.0054 ± 0.00032 µM; at Serotonin 5-HT6, 2.35 µM; at Cat NOP receptor, 0.0067 ± 0.00067 µM; at Dopamine D3, 3.66 µM; on Dog NOP receptor, 0.0053 ± 0.00071 µM. Further, the inhibition constant Ki at Dopamine transporter was 8.43 µM; at Sodium channel, site 2 it was 5.58 µM; in series [9] it was 0.59 ± 0.04 µM; in series [10], 14.7 ± 2.56 µM; on Sigma (non-selective) it was 7.12 µM. Moreover, the “half-life (t1/2)” value in [2] (3 mg/kg intravenous) is given as 7.9 h. Further, the “mean AUC” value in [2] (3 mg/kg intravenous) was found to be 5.68 µM·h. For the same compound, the AUC in series [2] (3 mg/kg p.o.) turned out to be 1.84 µM·h; in series [3] (0.03 mg/kg p.o.) it was 0.027 µM·h; in series [3] (0.30 mg/kg p.o.) it was 0.242 µM·h; in series [5] it was 1.29 µM·h. The Cmax in series [2] (3 mg/kg p.o.) was 540 nM; in series [3] (0.03 mg/kg p.o., 0.03 mg/kg), 3.1 nM and 3 nM; in series [3] (0.30 mg/kg p.o.), 31 nM; in series [5] it was 127 nM. The Tmax is reported as 0.8 h in [2] (3 mg/kg p.o.), 3 h in series [3] (0.03 mg/kg p.o.), 3 h in [3] (0.30 mg/kg p.o.) and 3.3 h in series [5]. For the same compound, in series [2] (3 mg/kg p.o. vs intravenous), the “percent bioavailability (F%)” value was determined as 32%. Moreover, the “number of entries into the drug paired side” value in [1] (10 mg/kg p.o.) was “did not alter”. In addition, the “conditioned place preference” value in series [1] is on record as “without effect; also recorded: did not produce any conditioned place preference; also recorded: no effect”. Moreover, the “plasma concentration during the 2- to 4-hour time period” value in series [3] (0.03 mg/kg p.o.) is reported as “about 2 nM”. Further, in the series with capsaicin-induced cough (0.1 mg/kg, p.o., 2 and 6 h), the “antitussive activity at 2 and 6 h” value is listed as “Significant antitussive activity”. In addition, in the series on capsaicin-induced cough (1 mg/kg p.o., 5-day BID regimen, 2 h post last dose), the “inhibition of capsaicin-evoked coughing, chronic dosing” value is 40 ± 11%. Further, in the series on capsaicin-induced cough (1 mg/kg p.o., single dose, 2 h post treatment), the “inhibition of capsaicin-evoked coughing, acute dosing” value is on record as 46 ±9%. For the same compound, the “inhibition of cough at 24 h” value with capsaicin-induced cough (1 mg/kg, p.o., 24 h, data not shown) is “did not inhibited cough”. The “tolerance to antitussive activity” value in the series with capsaicin-induced cough (5-day BID dosing regimen, 1 mg/kg p.o.) was “does not produce tolerance”. Further, the “antitussive effect in presence of naltrexone” value in the series with capsaicin-induced cough (SCH 486757 3 mg/kg p.o., naltrexone 10 mg/kg p.o., 2 h) was “not by naltrexone”. Besides, the “ED50 against capsaicin-induced cough” value in the series on capsaicin-induced cough (p.o., 4 h post administration) turned out to be 0.04 mg/kg. Also, in the series with capsaicin-induced cough (p.o., 4 h post administration), the “maximum efficacy, cough suppression” value stood at 66 ± 6%. The “effect on blood gases or respiratory function parameters” value in series [4] was “did not affect”. For the same compound, the “activity in remaining MDS Pharma enzyme and receptor binding assays” value in [6] is given as “did not show significant affinity”. In addition, the “tolerability, overt behavioral effects” value in series [7] is “well tolerated”. Also, the “effect on inspiratory electromyogram amplitude” value in [8] is “did not significantly affect; also recorded: no significant effect”.
Turning to `COc1ccc2c(c1)[C@]13CCCC[C@@H]1[C@H](C2)N(C)CC3` [dextromethorphan, reference compound], the “doses producing significant CNS effects (lethargy, ataxia)” value with capsaicin-induced cough was more than 100 mg.
On to `CC(N)Cc1ccccc1` (centres unmarked) [amphetamine, reference compound], for which, in series [1], the “conditioned place preference” value is reported as “induced a marked conditioned place preference; also recorded: increased the time spent on the drug paired side”.
`O=C1CC[C@@]2(O)[C@H]3Cc4ccc(O)c5c4[C@@]2(CCN3CC2CC2)[C@H]1O5` [naltrexone, reference compound]: in the series with capsaicin-induced cough (J113397 12 mg/kg i.p., naltrexone 10 mg/kg p.o.), the “action on capsaicin-induced cough responses, given alone” value is recorded as “Neither naltrexone nor J113397 given alone had any actions”.
